Assay results taken from patent publication EP0601187A1, “NOVEL ANTIBIOTIC AND PRODUCTION AND USE THEREOF” (HIGETA SHOYU CO., LTD., priority 1992, dated 1993).
In brackets after ≈: the same amount, converted by molar mass. Numbered stars: 1 amine (or outer) side, 2 acyl side, 3 side chain; on linkers, the order of the positions; unused ones are H or OH. Square brackets hold non-standard residues; d marks the D form. Peptide text beside a SMILES is read from it. Gly(Dodecyl) = CCCCCCCCCCCC[C@H](N)C(=O)O; X1 = CCCCCCCCCCCCC[C@H](N[*:1])C(=O)[*:2]

Key:
[1] = test system: Candida tropicalis IFO3256; conditions: IFO3256, pH 6.8
[2] = test system: Cryptococcus neoformans IFO1320; conditions: IFO1320, pH 6.8
[3] = test system: Trichophyton rubrum IFO9185; conditions: pH 6.8
[4] = test system: Trichophyton mentagrophytes IFO6124; conditions: pH 6.8
[5] = test system: Diaporothe citiri IFO9170; conditions: pH 6.8
[6] = test system: Aspergillus fumigatus IAM2612; conditions: IAM2612, pH 6.8
Candida albicans DUC1001 = assay: Antifungal activity in vitro by counting the number of the living cells; assay type: cell-based; conditions: just after addition at 25, 40 and 80 µg/ml
[7] = test system: Candida albicans IFM4009, Aspergillus fumigatus Tsukuba No. 12, Cryptococcus neoformans 145A; assay: Effectiveness in systemically fungi-infected mice; assay type: in vivo; conditions: mice intravenously inoculated with clinically isolated strains
Excerpt: As one example of the test of testing the effectiveness of the active substances, HUT57A or HUT57B may be administered to systemically fungi-infected mice, to which various clinically isolated strains (Candida albicans IFM4009, Aspergillus fumigatus Tsukuba No. 12, Cryptococcus neoformans 145A) were intravenously inoculated, whereby the effectiveness of administered the substance may be examined.

[8] = test system: Botrytis cinerea IFO31831; conditions: pH 6.8
[9] = test system: Fusarium oxysporum HUT5015; conditions: pH 6.8
[10] = test system: Fusarium solani ATCC11712; conditions: ATCC11712, pH 6.8
[11] = test system: Aspergillus flavas IAM2044; conditions: pH 6.8
ddy-N mice = assay: Acute toxicity test, single intravenous injection; assay type: in vivo
Experimental: In the next test, mice of the same kind as mentioned above were used. Each of HUT57A and HUT57B was dissolved in DMSO (dimethylsulfoxide)-castor oil-5 % Glc solution, and the resulting solution was injected to the caudal vein of each of the five male mice once or plural times. For the single injection, the solution was administered to the mice each in an amount of 200 mg per kg of the body weight; and for the plural injections, it was administered to them 14 times each in an amount of 30 mg/kg/day.

[12] = test system: Mucor guilliermondii IFO9403; conditions: pH 6.8
[13] = test system: Trichosporon cutaneum IFO1500; conditions: pH 6.8

Compound	MIC [1] [µg/mL]	MIC [2] [µg/mL]	MIC [3] [µg/mL]	MIC [4] [µg/mL]	MIC [5] [µg/mL]	MIC [6] [µg/mL]	number of the living cells (Candida albicans DUC1001)	effectiveness to systemic mycosis in mice [7]	MIC [8] [µg/mL]	MIC [9] [µg/mL]	Hemolyzation Activity (Hemolyzation Activity)	MIC [10] [µg/mL]	MIC [11] [µg/mL]	LD₅₀ by single intravenous injection (ddy-N mice) [mg/kg]	MIC [12] [µg/mL]	MIC [13] [µg/mL]
CCCCCCCCCCCC[C@@H]1NC(=O)[C@H](CCC(N)=O)NC(=O)[C@H](CC(N)=O)NC(=O)[C@H](Cc2ccc(O)cc2)NC(=O)[C@H](CC(N)=O)NC(=O)[C@@H]2CCCN2C(=O)[C@H](CO)NC(=O)[C@H](CC(N)=O)NC1=O [HUT57A, X-Asn-Ser-Pro-Asn-Tyr-Asn-Gln] (cyclo([Gly(Dodecyl)]NSPNYNQ))	11.4 (≈ 10.9 µM)	6.0 (≈ 5.75 µM)	6.2 (≈ 5.94 µM)	10.0 (≈ 9.59 µM)	1.0 (≈ 0.959 µM)	1.3 (≈ 1.25 µM)	noticeably decreased	effective	2.2 (≈ 2.11 µM)	1.2 (≈ 1.15 µM)	-	2.8 (≈ 2.68 µM)	2.3 (≈ 2.2 µM)	≥ 200	1.2 (≈ 1.15 µM)	23.0 (≈ 22 µM)
CCCCCCCCCCCCC[C@@H]1NC(=O)[C@H](CCC(N)=O)NC(=O)[C@H](CC(N)=O)NC(=O)[C@H](Cc2ccc(O)cc2)NC(=O)[C@H](CC(N)=O)NC(=O)[C@@H]2CCCN2C(=O)[C@H](CO)NC(=O)[C@H](CC(N)=O)NC1=O [HUT57B, X-Asn-Ser-Pro-Asn-Tyr-Asn-Gln] (cyclo([X1]NSPNYNQ))	11.2 (≈ 10.6 µM)	5.2 (≈ 4.92 µM)	5.4 (≈ 5.11 µM)	10.0 (≈ 9.46 µM)	1.0 (≈ 0.946 µM)	1.3 (≈ 1.23 µM)	noticeably decreased	effective	2.1 (≈ 1.99 µM)	1.2 (≈ 1.14 µM)	-	2.8 (≈ 2.65 µM)	2.4 (≈ 2.27 µM)	≥ 200	1.2 (≈ 1.14 µM)	23.0 (≈ 21.8 µM)
